biological target: F508del-CFTR in CFBE41o– cells (Homo sapiens, UniProt Q99942); assay: HS-YFP microfluorimetric assay of F508del-CFTR rescue (corrector activity); type: cell-based; details: CFBE41o– cells co-expressing F508del-CFTR and HS-YFP, 24 h treatment, Figure 5
Description: As a primary screen, the new thiadiazole derivatives 1–46 (Table 1) were tested for their ability to rescue the F508del-CFTR trafficking defect in CFBE41o^– cells, stably co-expressing F508del-CFTR and the HS-YFP (Figure 5). This cell line has been extensively used by our group, in combination with the microfluorimetric assay based on the HS-YFP, to identify and characterize many CFTR correctors.[39],[47] This assay relies on the hypothesis that RNF5 inhibition results in increased mutant CFTR processing and activity. Therefore, it can easily identify putative RNF5 inhibitors, but not other types of RNF5-binding compounds that could have no effect or have a negative effect on CFTR function, such as RNF5 activators (see analog-1). Thus, we opted for this assay as our primary aim was the identification of RNF5 inhibitors as a possible therapeutic strategy in CF. Twenty-four hours after seeding on 96-well plates, CFBE41o^– cells stably expressing F508del-CFTR and the HS-YFP were treated with test compounds at the desired concentration, one compound per well. Cells treated with vehicle alone (DMSO) and with corrector VX-809 (1 μM), respectively, served as negative and positive controls. At the time of the assay, cells were washed with PBS containing (in […]) 137 NaCl, 2.7 KCl, 8.1 Na2HPO4, 1.5 KH2PO4, 1 CaCl2, and 0.5 MgCl2. Cells were then incubated for 25 min with […] of PBS plus forskolin (20 μM) and VX-770 (1 μM) to maximally stimulate F508del-CFTR. Cells were then transferred to a microplate reader (FluoStar Galaxy; BMG Labtech, Offenburg, Germany) for CFTR activity determination. The plate reader was equipped with high-quality excitation (HQ500/20X: 500 ± 10 nm) and emission (HQ535/30M: 535 ± 15 nm) filters for YFP (Chroma Technology). Each assay comprised a continuous 14 s fluorescence reading and 2 s before and 12 s after injection of […] of an iodide-containing solution (PBS with Cl^– replaced by I^–; final I^– concentration […]). Data were normalized to the initial background-subtracted fluorescence. To determine the I^– influx rate, the final 11 s of the data for each well was fitted with an exponential function to extrapolate initial slope (dF/dt). Reproducibility of results was confirmed by performing three independent experiments. CFBE41o^– cells co-expressing F508del-CFTR and the HS-YFP were reverse-transfected with 50 nM (final concentration) siRNAs (Stealth, Life Technologies) in the presence of lipofectamine 2000 as a transfection agent. The following day, the medium was changed, and the cells were incubated at 37 °C for additional 24 h treated with test compounds at the desired concentration, prior to processing the cells for the YFP-based functional assay.

Sequence of F508del-CFTR in CFBE41o– cells (Q99942 2-180): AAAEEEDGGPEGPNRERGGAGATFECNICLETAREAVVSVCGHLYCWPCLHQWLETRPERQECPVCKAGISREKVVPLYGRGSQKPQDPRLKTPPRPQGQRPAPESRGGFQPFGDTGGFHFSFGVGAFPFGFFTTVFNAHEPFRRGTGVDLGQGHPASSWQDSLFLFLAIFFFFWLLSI
Sequence of F508del-CFTR in CFBE41o– cells (P13569 with tags, fused parts or gaps DEL508-508 partner): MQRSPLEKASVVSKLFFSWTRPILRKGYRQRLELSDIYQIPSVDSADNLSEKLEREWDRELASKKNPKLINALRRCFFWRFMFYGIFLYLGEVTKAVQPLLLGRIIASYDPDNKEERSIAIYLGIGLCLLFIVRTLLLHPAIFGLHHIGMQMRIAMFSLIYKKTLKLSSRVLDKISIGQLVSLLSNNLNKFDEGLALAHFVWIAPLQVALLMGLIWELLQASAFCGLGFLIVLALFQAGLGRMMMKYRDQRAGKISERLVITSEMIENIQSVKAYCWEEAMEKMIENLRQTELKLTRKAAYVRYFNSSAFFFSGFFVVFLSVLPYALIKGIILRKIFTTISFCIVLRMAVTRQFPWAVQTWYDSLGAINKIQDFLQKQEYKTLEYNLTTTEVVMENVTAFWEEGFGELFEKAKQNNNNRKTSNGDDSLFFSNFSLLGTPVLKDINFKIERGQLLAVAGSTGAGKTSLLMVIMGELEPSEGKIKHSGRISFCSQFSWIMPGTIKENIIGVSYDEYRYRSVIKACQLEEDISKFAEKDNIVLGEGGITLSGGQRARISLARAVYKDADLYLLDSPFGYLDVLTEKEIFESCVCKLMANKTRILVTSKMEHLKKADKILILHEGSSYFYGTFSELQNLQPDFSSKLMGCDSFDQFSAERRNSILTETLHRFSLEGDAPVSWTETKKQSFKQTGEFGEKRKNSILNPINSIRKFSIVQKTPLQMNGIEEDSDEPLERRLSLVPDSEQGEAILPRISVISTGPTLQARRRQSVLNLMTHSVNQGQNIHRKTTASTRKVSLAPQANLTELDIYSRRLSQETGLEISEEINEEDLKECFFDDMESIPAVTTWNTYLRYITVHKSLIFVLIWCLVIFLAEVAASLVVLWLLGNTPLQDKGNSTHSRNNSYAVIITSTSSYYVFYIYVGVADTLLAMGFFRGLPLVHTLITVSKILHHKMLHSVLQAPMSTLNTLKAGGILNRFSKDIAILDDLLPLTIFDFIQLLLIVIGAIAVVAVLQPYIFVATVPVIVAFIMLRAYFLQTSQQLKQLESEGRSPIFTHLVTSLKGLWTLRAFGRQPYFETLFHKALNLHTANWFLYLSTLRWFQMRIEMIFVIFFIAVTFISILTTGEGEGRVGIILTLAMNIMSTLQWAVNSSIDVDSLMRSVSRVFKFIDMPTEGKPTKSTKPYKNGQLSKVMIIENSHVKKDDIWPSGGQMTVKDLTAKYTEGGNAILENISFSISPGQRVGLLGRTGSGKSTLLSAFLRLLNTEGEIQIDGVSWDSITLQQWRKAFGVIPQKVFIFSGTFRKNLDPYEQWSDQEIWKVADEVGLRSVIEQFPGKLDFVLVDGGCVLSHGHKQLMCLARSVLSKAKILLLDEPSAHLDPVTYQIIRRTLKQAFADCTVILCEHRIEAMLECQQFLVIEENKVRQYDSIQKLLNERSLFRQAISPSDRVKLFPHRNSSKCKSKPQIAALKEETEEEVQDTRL

| SMILES | F508del-CFTR corrector activity compared with inh-2 (CFTR activity, primary screen) |
| --- | --- |
| Cc1cccc(/N=C(/N=c2\snc(C)n2Cc2ccccc2)c2ccccc2)c1 [Compound 37, (E)-N-((Z)-4-Benzyl-3-methyl-1,2,4-thiadiazol-5(4H)-ylidene)-N′-(m-tolyl)benzimidamide] | inactive analogs |
| Cc1ns/c(=N\C(=N\c2ccccc2)c2ccccc2)n1Cc1cccc(OC(C)C)c1 [Compound 18, (E)-N-((Z)-4-(3-Isopropoxybenzyl)-3-methyl-1,2,4-thiadiazol-5(4H)-ylidene)-N′-phenylbenzimidamide] | decreased potency |
| Cc1ns/c(=N\C(=N\c2ccccc2)c2cccnc2)n1Cc1ccccc1 [Compound 35, (E)-N-((Z)-4-Benzyl-3-methyl-1,2,4-thiadiazol-5(4H)-ylidene)-N′-phenylnicotinimidamide] | drop of activity |
| COc1ccccc1Cn1c(C)ns/c1=N\C(=N\c1ccccc1)c1ccccc1 [Compound 27, (E)-N-((Z)-4-(2-Methoxybenzyl)-3-methyl-1,2,4-thiadiazol-5(4H)-ylidene)-N′-phenylbenzimidamide] | slight increase in activity |
| Cc1nn(Cc2ccccc2)/c(=N/C(=N/c2ccccc2)c2ccccc2)s1 [Compound 44, (E)-N-((Z)-3-Benzyl-5-methyl-1,3,4-thiadiazol-2(3H)-ylidene)-N′-phenylbenzimidamide] | abolished any corrector activity |
| c1ccc(Cn2ncs/c2=N\C(=N\c2ccccc2)c2ccccc2)cc1 [Compound 45, (E)-N-((Z)-3-Benzyl-1,3,4-thiadiazol-2(3H)-ylidene)-N′-phenylbenzimidamide] | abolished any corrector activity |
| Cc1ns/c(=N\C(=N\c2ccccc2)c2ccccc2)n1Cc1cccc(Cl)c1 [Compound 24, (E)-N-((Z)-4-(3-Chlorobenzyl)-3-methyl-1,2,4-thiadiazol-5(4H)-ylidene)-N′-phenylbenzimidamide] | increased activity |
| Cc1ccccc1Cn1c(C)ns/c1=N\C(=N\c1ccccc1)c1ccccc1 [Compound 25, (E)-N-((Z)-3-Methyl-4-(2-methylbenzyl)-1,2,4-thiadiazol-5(4H)-ylidene)-N′-phenylbenzimidamide] | slight increase in activity |
| Cc1ns/c(=N\C(=N\c2ccccc2)c2ccccc2)n1Cc1cccc(N)c1 [Compound 20, (E)-N-((Z)-4-(3-Aminobenzyl)-3-methyl-1,2,4-thiadiazol-5(4H)-ylidene)-N′-phenylbenzimidamide] | decreased potency |
| Cc1ns/c(=N\C(=N\C2CCCCC2)c2ccccc2)n1Cc1ccccc1 [Compound 39, (E)-N-((Z)-4-Benzyl-3-methyl-1,2,4-thiadiazol-5(4H)-ylidene)-N′-cyclohexylbenzimidamide] | inactive analogs |
| Cc1ns/c(=N\C(=N\c2ccccc2)c2ccco2)n1Cc1ccccc1 [Compound 36, (E)-N-((Z)-4-Benzyl-3-methyl-1,2,4-thiadiazol-5(4H)-ylidene)-N′-phenylfuran-2-carboximidamide] | drop of activity |
| Cc1ns/c(=N\C(=N\c2ccccc2)c2ccccc2)n1Cc1ccc(O)cc1 [Compound 8, (E)-N-((Z)-4-(4-Hydroxybenzyl)-3-methyl-1,2,4-thiadiazol-5(4H)-ylidene)-N′-phenylbenzimidamide] | reduced potency |
| Cc1ns/c(=N\C(=N\c2ccccc2)c2ccccc2)n1Cc1ccc(Cl)cc1 [Compound 10, (E)-N-((Z)-4-(4-Chlorobenzyl)-3-methyl-1,2,4-thiadiazol-5(4H)-ylidene)-N′-phenylbenzimidamide] | maintained the activity unaltered |
| COc1ccc(Cn2c(C)ns/c2=N\C(=N\c2ccccc2)c2ccccc2)cc1 [Compound 7, (E)-N-((Z)-4-(4-Methoxybenzyl)-3-methyl-1,2,4-thiadiazol-5(4H)-ylidene)-N′-phenylbenzimidamide] | reduced potency |
| Cc1ns/c(=N\C(=N\c2ccccc2)c2ccccc2)n1CCCc1ccccc1 [Compound 5, (E)-N-((Z)-3-Methyl-4-(3-phenylpropyl)-1,2,4-thiadiazol-5(4H)-ylidene)-N′-phenylbenzimidamide] | devoid of significant F508del-CFTR corrector activity |
| CCOc1cccc(Cn2c(C)ns/c2=N\C(=N\c2ccccc2)c2ccccc2)c1 [Compound 19, (E)-N-((Z)-4-(3-Ethoxybenzyl)-3-methyl-1,2,4-thiadiazol-5(4H)-ylidene)-N′-phenylbenzimidamide] | did not affect the activity |
| Cc1ns/c(=N\C(=N\c2ccccc2)c2ccccc2)n1CCc1ccccc1 [Compound 4, (E)-N-((Z)-3-Methyl-4-phenethyl-1,2,4-thiadiazol-5(4H)-ylidene)-N′-phenylbenzimidamide] | devoid of significant F508del-CFTR corrector activity |
| Cc1ns/c(=N\C(=N\c2ccccc2)c2ccccc2)n1Cc1cccc(F)c1 [Compound 23, (E)-N-((Z)-4-(3-Fluorobenzyl)-3-methyl-1,2,4-thiadiazol-5(4H)-ylidene)-N′-phenylbenzimidamide] | did not affect the activity |
| Cc1ns/c(=N\C(=N\c2ccccc2)c2ccccc2)n1Cc1ccccc1C(F)(F)F [Compound 26, (E)-N-((Z)-3-Methyl-4-(2-(trifluoromethyl)benzyl)-1,2,4-thiadiazol-5(4H)-ylidene)-N′-phenylbenzimidamide] | detrimental effect |
| Cc1ns/c(=N\C(=N\c2ccccc2)c2ccccc2)n1Cc1ccccc1Cl [Compound 28, (E)-N-((Z)-4-(2-Chlorobenzyl)-3-methyl-1,2,4-thiadiazol-5(4H)-ylidene)-N′-phenylbenzimidamide] | comparable activity to the unsubstituted original hit inh-2 |
| c1ccc(Cn2ccs/c2=N\C(=N\c2ccccc2)c2ccccc2)cc1 [Compound 46, (E)-N-((Z)-3-Benzylthiazol-2(3H)-ylidene)-N′-phenylbenzimidamide] | abolished any corrector activity |
| Cc1ns/c(=N\C(=N\Cc2ccccc2)c2ccccc2)n1Cc1ccccc1 [Compound 38, (E)-N′-Benzyl-N-((Z)-4-benzyl-3-methyl-1,2,4-thiadiazol-5(4H)-ylidene)benzimidamide] | inactive analogs |
| Cc1ns/c(=N\C(=N\c2ccccc2)c2ccccc2)n1Cc1cccc(C(F)(F)F)c1 [Compound 15, (E)-N-((Z)-3-Methyl-4-(3-(trifluoromethyl)benzyl)-1,2,4-thiadiazol-5(4H)-ylidene)-N′-phenylbenzimidamide] | decreased potency |

From PMC10388311, “Innovative Strategy toward Mutant CFTR Rescue in Cystic Fibrosis: Design and Synthesis of Thiadiazole Inhibitors of the E3 Ligase RNF5” (Journal of Medicinal Chemistry, 2023)
